Values of other authors in US7863273B2, “Process for the preparation of an optically active 5H-pyrrolo [3,4-B] pyrazine derivative” (Glenmark Generics Ltd., priority 2006, dated 2011).

Experiments:
writhing reflex = conditions: relative to zopiclone (racemate)
[1] = not given; remark: listed apart in the source
[2] = tested on: central benzodiazepine receptor sites; conditions: relative to zopiclone (racemate)
[3] = tested on: pentetrazol-induced convulsions; conditions: relative to zopiclone (racemate)

CN1CCN(C(=O)O[C@@H]2c3nccnc3C(=O)N2c2ccc(Cl)cn2)CC1 (single isomer, unassigned) [laevorotatory isomer]
potency of action: writhing reflex test in mice (writhing reflex): almost inactive
toxicity as compared to the racemate: more toxic than the racemate
activity as compared to the racemate [1]: almost inactive
potency of action: affinity for central benzodiazepine receptor sites [2]: almost inactive
potency of action: antagonist activity with respect to pentetrazol-induced convulsions [3]: almost inactive

CN1CCN(C(=O)O[C@H]2c3nccnc3C(=O)N2c2ccc(Cl)cn2)CC1 [dextrorotatory isomer, (+)-(5S)-6-(chloropyridin-2-yl)-7-oxo-6,7-dihydro-5H-pyrrol[3,4-b]pyrazin-5-yl 4-methylpiperazine-1-carboxylate]
potency of action: writhing reflex test in mice (writhing reflex): approximately twice as active
toxicity as compared to the racemate: lower toxicity
activity as compared to the racemate [1]: approximately twice as active
potency of action: affinity for central benzodiazepine receptor sites [2]: approximately twice as active
potency of action: antagonist activity with respect to pentetrazol-induced convulsions [3]: approximately twice as active
